This is an account of results in paper PMC12865480 (Pharmaceuticals, 2025).

The target in series [1] is T1, σ1 receptor (Cavia porcellus, UniProt Q60492). Nature of the series: biochemical.
In series [2] the target is T2, ifenprodil binding site of NMDA receptors with GluN2B subunit (Homo sapiens, UniProt Q05586+Q13224).
T2 construct: expressed in transfected cells; host or cells: mouse L(tk-) cells, stably transfected, expression induced with dexamethasone; membrane homogenate
The experiment in a line: biochemical.

Series [3] addresses PCP binding site of the NMDA receptor. Nature of the series: PCP binding site assay, radioligand [3H](+)-MK-801, pig brain preparations. To be noted: n = 3, values without SEM mean of two experiments.
Another series has as its target T3, σ2 receptor (Rattus norvegicus, UniProt Q5U3Y7).
T3 sequence (Q5U3Y7 1-176): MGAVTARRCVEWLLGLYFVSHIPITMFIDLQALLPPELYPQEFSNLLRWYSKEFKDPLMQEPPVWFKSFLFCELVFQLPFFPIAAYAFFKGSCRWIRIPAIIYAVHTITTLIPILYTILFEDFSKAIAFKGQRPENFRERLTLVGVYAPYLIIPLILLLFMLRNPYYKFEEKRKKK
Nature of the series: biochemical. Type of series: binding. To be noted: read-out: Ki ± SEM σ2.

A short description of a further series: physchem. Particulars: pH 7.4.
Series [4] addresses T1, σ1 receptor. Particulars: for σ1:σ2 receptor selectivity: σ1 over σ2.
For series [5] the following is noted: after 90 min incubation with mouse liver microsomes and NADPH.
A further series addresses µ-opioid receptor (Cavia porcellus, UniProt A0ACM8Q262). The experiment in a line: µ-opioid receptor binding study. Particulars: read-out: inhibition of the radioligand binding, µ receptor.
In the next series the target is δ-opioid receptor (Rattus norvegicus, UniProt P33533). The experiment in a line: δ-opioid receptor binding study. Particulars: read-out: inhibition of the radioligand binding, δ receptor.
δ-opioid receptor, sequence (P33533 whole entry): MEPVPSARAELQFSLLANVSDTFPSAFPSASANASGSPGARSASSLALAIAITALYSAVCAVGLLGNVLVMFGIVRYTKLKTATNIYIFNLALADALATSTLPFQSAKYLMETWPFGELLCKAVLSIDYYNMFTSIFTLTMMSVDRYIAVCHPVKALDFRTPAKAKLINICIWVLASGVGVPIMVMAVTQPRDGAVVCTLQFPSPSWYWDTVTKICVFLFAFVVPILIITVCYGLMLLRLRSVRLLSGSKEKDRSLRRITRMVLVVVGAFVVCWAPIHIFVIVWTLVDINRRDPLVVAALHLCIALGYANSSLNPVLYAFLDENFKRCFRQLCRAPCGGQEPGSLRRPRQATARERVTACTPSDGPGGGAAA
A further series addresses κ-opioid receptor (Cavia porcellus, UniProt P41144). Nature of the series: κ-opioid receptor binding study. Particulars: read-out: inhibition of the radioligand binding, κ receptor.
Series [6] concerns the target PCP binding site of the NMDA receptor. Particulars: earlier study; cited from earlier work.
Series [7] concerns the target T1, σ1 receptor. To be noted: earlier study; cited from earlier work.

Structures are written as SMILES. “And” between values parts separate entries of the source, which are not always exact repeats. Identical values can stand only once. Like-named read-outs stand apart in the source and are kept apart here.

T1 sequence (Q60492 whole entry): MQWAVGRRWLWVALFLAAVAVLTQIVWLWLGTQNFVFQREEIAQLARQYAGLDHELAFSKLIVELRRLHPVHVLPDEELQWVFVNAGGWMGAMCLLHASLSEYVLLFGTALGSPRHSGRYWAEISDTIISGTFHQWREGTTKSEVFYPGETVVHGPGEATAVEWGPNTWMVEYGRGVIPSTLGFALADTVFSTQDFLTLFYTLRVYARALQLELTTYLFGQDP
T2 sequence (Q13224 27-1484, other chains not shown): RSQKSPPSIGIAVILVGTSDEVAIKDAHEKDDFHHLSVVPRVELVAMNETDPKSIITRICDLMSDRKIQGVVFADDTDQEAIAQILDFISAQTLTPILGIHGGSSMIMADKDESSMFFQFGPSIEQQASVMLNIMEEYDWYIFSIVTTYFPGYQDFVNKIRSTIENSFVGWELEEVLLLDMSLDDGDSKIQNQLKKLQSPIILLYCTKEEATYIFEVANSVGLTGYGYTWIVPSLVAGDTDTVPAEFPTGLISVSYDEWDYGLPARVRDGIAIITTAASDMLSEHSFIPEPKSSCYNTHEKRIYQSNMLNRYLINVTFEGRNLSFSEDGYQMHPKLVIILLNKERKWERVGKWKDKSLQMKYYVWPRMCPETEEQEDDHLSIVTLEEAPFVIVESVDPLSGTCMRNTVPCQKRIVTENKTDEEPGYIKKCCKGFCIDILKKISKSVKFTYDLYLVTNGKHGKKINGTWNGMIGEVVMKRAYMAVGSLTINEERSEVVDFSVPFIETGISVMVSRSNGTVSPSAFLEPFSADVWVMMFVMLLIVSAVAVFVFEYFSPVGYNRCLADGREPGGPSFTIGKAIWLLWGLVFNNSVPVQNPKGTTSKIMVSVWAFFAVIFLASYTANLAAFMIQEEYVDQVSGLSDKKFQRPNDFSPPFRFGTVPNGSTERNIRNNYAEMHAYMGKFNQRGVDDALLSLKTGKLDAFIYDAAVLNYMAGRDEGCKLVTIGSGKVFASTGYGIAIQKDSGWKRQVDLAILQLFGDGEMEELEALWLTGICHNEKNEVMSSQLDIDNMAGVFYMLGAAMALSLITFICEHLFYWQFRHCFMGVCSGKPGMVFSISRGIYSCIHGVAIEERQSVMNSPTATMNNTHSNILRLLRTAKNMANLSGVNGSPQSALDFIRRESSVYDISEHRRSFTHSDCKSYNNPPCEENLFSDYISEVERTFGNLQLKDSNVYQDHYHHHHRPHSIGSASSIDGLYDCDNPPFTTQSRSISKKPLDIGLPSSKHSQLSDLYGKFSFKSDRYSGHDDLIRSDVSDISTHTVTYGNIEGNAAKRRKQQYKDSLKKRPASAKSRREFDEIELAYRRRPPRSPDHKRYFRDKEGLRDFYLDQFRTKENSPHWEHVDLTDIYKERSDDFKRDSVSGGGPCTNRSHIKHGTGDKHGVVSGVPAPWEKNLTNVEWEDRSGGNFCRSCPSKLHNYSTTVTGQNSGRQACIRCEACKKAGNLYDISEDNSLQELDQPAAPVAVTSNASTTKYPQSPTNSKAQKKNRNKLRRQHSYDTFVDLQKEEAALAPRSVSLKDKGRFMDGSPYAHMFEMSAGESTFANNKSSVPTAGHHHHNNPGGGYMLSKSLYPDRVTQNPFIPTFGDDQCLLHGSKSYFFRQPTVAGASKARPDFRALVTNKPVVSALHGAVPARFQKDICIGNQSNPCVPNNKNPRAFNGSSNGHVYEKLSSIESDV
κ-opioid receptor, sequence (P41144 whole entry): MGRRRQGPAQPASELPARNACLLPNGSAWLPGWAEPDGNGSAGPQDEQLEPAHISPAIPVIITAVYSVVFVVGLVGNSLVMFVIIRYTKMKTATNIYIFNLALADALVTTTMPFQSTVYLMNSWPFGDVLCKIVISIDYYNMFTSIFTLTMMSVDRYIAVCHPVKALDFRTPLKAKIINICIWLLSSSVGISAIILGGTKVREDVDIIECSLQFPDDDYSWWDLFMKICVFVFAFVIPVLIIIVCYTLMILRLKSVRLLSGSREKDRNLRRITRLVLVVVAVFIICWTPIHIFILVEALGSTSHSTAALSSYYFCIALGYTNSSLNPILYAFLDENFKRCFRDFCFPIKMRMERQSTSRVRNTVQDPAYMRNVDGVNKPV
µ-opioid receptor, sequence (A0ACM8Q262 1-400): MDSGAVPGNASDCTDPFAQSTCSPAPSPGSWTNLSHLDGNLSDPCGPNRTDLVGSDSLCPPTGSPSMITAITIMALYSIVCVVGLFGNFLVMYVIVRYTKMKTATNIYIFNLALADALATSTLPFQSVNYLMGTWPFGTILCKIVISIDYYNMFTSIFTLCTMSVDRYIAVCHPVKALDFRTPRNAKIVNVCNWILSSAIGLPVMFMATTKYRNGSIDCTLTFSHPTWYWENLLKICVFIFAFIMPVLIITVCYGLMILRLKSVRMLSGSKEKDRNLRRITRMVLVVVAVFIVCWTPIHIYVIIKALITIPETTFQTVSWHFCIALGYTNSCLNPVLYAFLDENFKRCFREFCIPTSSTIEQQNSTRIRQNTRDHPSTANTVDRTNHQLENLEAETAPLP

For `NC(CCC[C@H]1CCO[C@@H](c2ccccc2)O1)c1ccccc1` (relative stereo) [24a, 1-Phenyl-4-(cis-2-phenyl-1,3-dioxan-4-yl)butan-1-amine], the inhibitory constant (Ki) on σ1 receptor [1] (Ki ± SEM σ1) is above 1000 nM; in [2] (read-out: Ki ± SEM GluN2B), 1350 nM; in series [3] it was above 1000 nM.
In turn, `NCCCC[C@H]1CCO[C@@H](c2ccccc2)O1` (relative stereo) [14a, 4-(cis-2-Phenyl-1,3-dioxan-4-yl)butan-1-amine] returned a half-maximal inhibitory concentration (IC50) against σ1 receptor [1] above 1000 nM. Also, the Ki (at σ1 receptor [1] (Ki ± SEM σ1); at σ2 receptor; in series [2] (read-out: Ki ± SEM GluN2B); in series [3]) was above 1000 nM throughout.
As for `CCC1(c2ccccc2)OCCC(CCCC(c2ccccc2)N2CCCC2)O1` (stereo not drawn) [27b, 1-[4-(trans-2-Ethyl-2-phenyl-1,3-dioxan-4-yl)-1-phenylbutyl]pyrrolidine], the logD in the series “physchem” was determined as 3.33 ± 0.08. Moreover, at σ1 receptor [4], the “LLE (ligand-lipophilicity efficiency)” value is on record as 4.39. The inhibitory constant (Ki) on σ1 receptor [1] (Ki ± SEM σ1) was 19 ± 0.6 nM; at σ1 receptor [1] (pKi(σ1)) it was 19.1 nM; on σ2 receptor, 64 ± 15 nM; in series [2], 63 ± 20 nM; in [3], above 1000 nM. In addition, the “Metabolic Stability (5): amount of the remaining unmetabolized parent compound” value in series [5] is reported as 55 ± 5%.
Turning to `CCC1(c2ccccc2)OCCC(CCCC(N)c2ccccc2)O1` (stereo not drawn) [24b, 4-(trans-2-Ethyl-2-phenyl-1,3-dioxan-4-yl)-1-phenylbutan-1-amine], the Ki stood at 427 nM at σ1 receptor [1] (Ki ± SEM σ1), 170 nM at σ2 receptor, 136 ± 36 nM in series [2] (read-out: Ki ± SEM GluN2B) and 524 nM in [3].
The matching figures for `CCC1(c2ccccc2)OCCC(CCCC(NC)c2ccccc2)O1` (stereo not drawn) [25b, 4-(trans-2-Ethyl-2-phenyl-1,3-dioxan-4-yl)-N-methyl-1-phenylbutan-1-amine]: 58 ± 8.2 nM, 255 nM, 190 ± 39 nM and above 1000 nM.
In turn, `CC[C@]1(c2ccccc2)OCC[C@H](CCCCN(C)Cc2ccccc2)O1` (relative stereo) [18b, N-Benzyl-4-(trans-2-ethyl-2-phenyl-1,3-dioxan-4-yl)-N-methyl-butan-1-amine] displayed a log distribution coefficient (logD) in the series “physchem” of 3.54 ± 0.06. For the same compound, the “LLE (ligand-lipophilicity efficiency)” value on σ1 receptor [4] stood at 4.52. In addition, the “σ1:σ2 receptor selectivity” value at σ1 receptor [4] was found to be 3 fold. Also, the inhibition at 1 µM at µ-opioid receptor, on δ-opioid receptor and at κ-opioid receptor was 0% throughout. Moreover, the Ki on σ1 receptor [1] (Ki ± SEM σ1) is 8.7 ± 3.6 nM; on σ1 receptor [1] (pKi(σ1)), 8.71 nM; on σ2 receptor it was 24 ± 6.3 nM; in series [2], 20 ± 3.3 nM; in series [3], above 1000 nM. Besides, the “Metabolic Stability (5): amount of the remaining unmetabolized parent compound” value in [5] is 36% and 36 ± 1%.
Consider `CNC(CCC[C@H]1CCO[C@@H](c2ccccc2)O1)c1ccccc1` (relative stereo) [25a, N-Methyl-1-phenyl-4-(cis-2-phenyl-1,3-dioxan-4-yl)butan-1-amine], for which the Ki on σ1 receptor [1] (Ki ± SEM σ1) is 144 ± 26 nM; on σ2 receptor, above 1000 nM; in [2] (read-out: Ki ± SEM GluN2B) it was 716 nM; in series [3] it was above 1000 nM.
`CC[C@]1(c2ccccc2)OCC[C@H](CCCCN2CCCC2)O1` (relative stereo) [19b, 1-[4-(trans-2-Ethyl-2-phenyl-1,3-dioxan-4-yl)butyl]pyrrolidine] showed a logD in “physchem” of 1.29 ± 0.05. For the same compound, the “LLE (ligand-lipophilicity efficiency)” value on σ1 receptor [4] stood at 5.96. Besides, the Ki is 56 ± 19 nM on σ1 receptor [1] (Ki ± SEM σ1); 56.2 nM at σ1 receptor [1] (pKi(σ1)); 57 ± 1.9 nM on σ2 receptor; 67 ± 18 nM in series [2]; above 1000 nM in series [3]. Further, the “Metabolic Stability (5): amount of the remaining unmetabolized parent compound” value in series [5] amounted to 62 ± 2%.
Compound `CC[C@]1(c2ccccc2)OCC[C@H](CCCCNCc2ccccc2)O1` (relative stereo) [17b, N-Benzyl-4-(trans-2-ethyl-2-phenyl-1,3-dioxan-4-yl)butan-1-amine] registered a logD in the series “physchem” of 2.65 ± 0.04. Besides, at σ1 receptor [4], the “LLE (ligand-lipophilicity efficiency)” value stood at 5.20. Further, the inhibition constant (Ki) on σ1 receptor [1] (Ki ± SEM σ1) was 14 ± 6.1 nM; on σ1 receptor [1] (pKi(σ1)) it was 14.1 nM; at σ2 receptor, 22 ± 1.9 nM; in series [2] it was 39 ± 13 nM; in series [3] it was 569 ± 141 nM. In series [5], the “Metabolic Stability (5): amount of the remaining unmetabolized parent compound” value stood at 50 ± 4%. Moreover, the inhibition at 1 µM at κ-opioid receptor was 0%.
`CNCCCC[C@H]1CCO[C@@H](c2ccccc2)O1` (relative stereo) [16a, N-Methyl-4-(cis-2-phenyl-1,3-dioxan-4-yl)butan-1-amine]: the Ki on σ1 receptor [1] (Ki ± SEM σ1) was 842 nM; on σ2 receptor it was above 1000 nM; in series [2] (read-out: Ki ± SEM GluN2B), above 1000 nM; in [3], above 1000 nM.
As for `CCC1(c2ccccc2)OCCC(CCCC(NCc2ccccc2)c2ccccc2)O1` (stereo not drawn) [26b, N-Benzyl-4-(trans-2-ethyl-2-phenyl-1,3-dioxan-4-yl)-1-phenylbutan-1-amine], the inhibition constant (Ki) was 88 ± 43 nM on σ1 receptor [1] (Ki ± SEM σ1), 139 nM at σ2 receptor, 257 ± 57 nM in [2] (read-out: Ki ± SEM GluN2B) and above 1000 nM in series [3].
Turning to `CC[C@]1(c2ccccc2)OC[C@H]([C@@H]2CCCCN2)O1` [etoxadrol], the Ki in series [6] was 22 nM.
`CCC1(c2ccccc2)OCCC(CCN)O1` (centres unmarked) [2a]: the results for the Ki (in series [6]; on σ1 receptor [7]) were 19 nM and 955 nM, respectively.
As for `c1ccc(CNCCCC2CCOC(c3ccccc3)O2)cc1` (centres unmarked) [compound 4], on σ1 receptor [7], the inhibitory constant (Ki) was 164 nM.
Regarding `CC[C@]1(c2ccccc2)OCC[C@H](CCCCN)O1` (relative stereo) [14b, 4-(trans-2-Ethyl-2-phenyl-1,3-dioxan-4-yl)butan-1-amine], on σ1 receptor [1], the IC50 was above 1000 nM. For the same compound, the inhibition constant Ki at σ1 receptor [1] (Ki ± SEM σ1) is above 1000 nM; at σ2 receptor, above 1000 nM; in [2] (read-out: Ki ± SEM GluN2B), above 1000 nM; in series [3], 731 nM.
For the compound `CC[C@]1(c2ccccc2)OCC[C@H](CCCCNC)O1` (relative stereo) [16b, 4-(trans-2-Ethyl-2-phenyl-1,3-dioxan-4-yl)-N-methylbutan-1-amine], the Ki was 107 ± 5 nM on σ1 receptor [1] (Ki ± SEM σ1), 311 nM on σ2 receptor, above 1000 nM in [2] (read-out: Ki ± SEM GluN2B) and above 1000 nM in series [3].
In “physchem”, `c1ccc([C@@H]2OCC[C@H](CCCCN3CCCC3)O2)cc1` (relative stereo) [19a, 1-[4-(cis-2-Phenyl-1,3-dioxan-4-yl)butyl]pyrrolidine] had a log distribution coefficient (logD) of 0.09 ± 0.05. In addition, the “LLE (ligand-lipophilicity efficiency)” value at σ1 receptor [4] was 6.72. For the same compound, the Ki on σ1 receptor [1] (Ki ± SEM σ1) was 154 ± 8 nM; at σ1 receptor [1] (pKi(σ1)) it was 155 nM; on σ2 receptor, above 1000 nM; in [2] (read-out: Ki ± SEM GluN2B) it was above 1000 nM; in series [3], above 1000 nM. The “Metabolic Stability (5): amount of the remaining unmetabolized parent compound” value in series [5] was 55% and 55 ± 2%.
Consider `c1ccc(CNCCCC[C@H]2CCO[C@@H](c3ccccc3)O2)cc1` (relative stereo) [17a, N-Benzyl-4-(cis-2-phenyl-1,3-dioxan-4-yl)butan-1-amine], for which the logD in “physchem” came to 1.32 ± 0.04. In addition, on σ1 receptor [4], the “LLE (ligand-lipophilicity efficiency)” value was found to be 6.19. The “selectivity for the σ1 receptor against the ifenprodil binding site” value on σ1 receptor [4] is listed as above 30 fold. In addition, the “selectivity for the σ1 receptor over δ-opioid receptors” value on σ1 receptor [4] (σ1 over δ-opioid receptor) stood at 9 fold. The “σ1:σ2 receptor selectivity” value on σ1 receptor [4] is “approx. 7 fold”. For the same compound, the inhibition at 1 µM on µ-opioid receptor was found to be 3%; at κ-opioid receptor, 0%. The Ki was 31 ± 4 nM on σ1 receptor [1] (Ki ± SEM σ1); 30.9 nM on σ1 receptor [1] (pKi(σ1)); 213 nM on σ2 receptor; above 1000 nM in series [2] (read-out: Ki ± SEM GluN2B); above 1000 nM in series [3]. Besides, the “Metabolic Stability (5): amount of the remaining unmetabolized parent compound” value in [5] was 56% and 56 ± 3%.
For `c1ccc(CNCCC2CCCC(c3ccccc3)O2)cc1` (centres unmarked) [compound 3], the Ki at σ1 receptor [7] is 6.4 nM.
In “physchem”, `c1ccc(C(CCC[C@H]2CCO[C@@H](c3ccccc3)O2)N2CCCC2)cc1` (relative stereo) [27a, 1-[1-Phenyl-4-(cis-2-phenyl-1,3-dioxan-4-yl)butyl]pyrrolidine] registered a logD of 2.2 ± 0.07. For the same compound, the “LLE (ligand-lipophilicity efficiency)” value at σ1 receptor [4] was determined as 4.59. The inhibitory constant (Ki) at σ1 receptor [1] (Ki ± SEM σ1) was 161 ± 59 nM; on σ1 receptor [1] (pKi(σ1)) it was 162 nM; on σ2 receptor, above 1000 nM; in [2] (read-out: Ki ± SEM GluN2B) it was 366 nM; in series [3], above 1000 nM. In series [5], the “Metabolic Stability (5): amount of the remaining unmetabolized parent compound” value is 76% and 76 ± 3%.
Regarding `c1ccc(CNC(CCC[C@H]2CCO[C@@H](c3ccccc3)O2)c2ccccc2)cc1` (relative stereo) [26a, N-Benzyl-1-phenyl-4-(cis-2-phenyl-1,3-dioxan-4-yl)butan-1-amine], the inhibition constant (Ki) at σ1 receptor [1] (Ki ± SEM σ1) is 918 nM; on σ2 receptor, 907 nM; in [2] (read-out: Ki ± SEM GluN2B) it was above 1000 nM; in series [3] it was above 1000 nM.
For `CCC1(c2ccccc2)OCCC(CCNCc2ccccc2)O1` (centres unmarked) [2b], on σ1 receptor [7], the inhibitory constant (Ki) is 27 nM.
